Laboratory results taken from US20220128542A1, “TREATMENT EFFICIENCY EVALUATION” (TX MEDIC AB, priority 2019, published 2022).

Tested on: Mouse cortical neurons
Test: Gene expression array and pathway analysis in cortical neurons (Example 2)
Type: cell-based
Conditions: for differentially expressed genes: cortical neuron section (printed motor neurons)
Experimental: For each cell line, n=8×25 cm^2 culture flasks were set up. Two flasks were harvested for each cell type on the day of treatment (24 hours after seeding). This represents the Day0 time point. From the remaining flasks, three flasks were treated with Control Medium and three were treated with Culture Medium (CM) containing LMW-DS to give a final concentration of 0.01 mg/ml. Cells from the treated flasks were collected after 48 hours. Therefore the collected data represent (a) untreated cells (Day0 Controls and Day2 Controls) and (b) cells treated with LMW-DS for 48 hours (Day2 LMW-DS treated).
25 cm^2 flasks were coated by adding 2 ml per flask of a solution of 50 μg/ml poly-d-lysine in Hank's balanced salt solution (HBSS) and incubating overnight at 37° C. in the dark. Flasks were washed with cell culture water and air-dried for 30 min in the dark. Flasks were coated by adding 1 ml per flask of a solution of 25 μg/ml laminin in phosphate-buffered saline (PBS) and incubating for 2 hour at 37° C. in the dark. The laminin flasks were washed with PBS three times before plating cells.
Medium was prepared by adding 10 ml B-27 Serum-Free Supplement and 2.5 ml GlutaMAX™-I Supplement to 500 ml of Neurobasal medium. The medium was pre-warmed to 37° C. Cells from 12 vials were thawed sequentially in a 37° C. water bath for no longer than 2 min and gently transferred into a 15 ml tube. 9 ml of medium was gently added drop-wise to each. The cell suspension was mixed by inverting the tubes carefully twice.
The cells were centrifuged for 5 minutes at 200×g. Supernatant was removed (to the last 0.5 ml) and cells were gently re-suspended by trituration. The cells from the 12 vials were mixed and distributed equally into the previously coated 25 cm^2 flasks (n=8). Cells were incubated at 37° C. with 5% CO2 for 24 hours.
A fresh 100× LMW-DS stock (1.0 mg/ml) was prepared in sterile DMEM-F12. The concentrated drug stock was sterile filtered and added to the respective culture media (19.6 ml CM and 0.4 ml LMW-DS stock solution). The Control was made using 19.6 ml CM and 0.4 ml of DMEM-F12. LMW-DS and CM were added to the respective flasks (5 ml each) to reach the 0.01 mg/ml concentration of LMW-DS in each dish with a total of 10 ml CM each.
CM was aspirated into a clean and labelled 15 ml Falcon tube. The flasks (without culture medium) were placed into the −80° C. freezer for 30 minutes. The CM in the Falcon tubes was spun at 3000×g for 5 minutes. Supernatant was removed and the small pellet was re-suspended in 2.5 ml Trizol:Water (4:1) solution at room temperature (RT, ˜22° C.).
The frozen flasks were removed one-by one from the freezer and the Trizol-Water from the appropriate tubes was moved to the flask. Flasks were left at RT for 5 minutes before the content was aspirated back into the 15 ml Falcon tube (after washing the bottom of the flask with the solution thoroughly). The flasks were inspected under the microscope to ensure full removal of cells. The collected lysates in the 15 ml Falcon tubes were placed into the −80° C. freezer.
Falcon tubes containing the homogenates were removed from the freezer and stored for 5 minutes at RT to permit the complete dissociation of nucleoprotein complexes.
Two aliquots of 1 ml lysate were removed from each sample and 200 μl of chloroform was added to each (0.2 ml of chloroform per 1 ml of TRIzol Reagent used during the cell lysis step) and the tube was shaken vigorously. Samples were stored at RT for 2-3 minutes and subsequently centrifuged at 12,000×g for 15 minutes at 4° C.
The mixture separated into three layers: a lower red phenol-chloroform phase, an interphase and a colorless upper aqueous phase. The RNA remained in the top aqueous phase, DNA in the white middle (interphase) phase and protein in the pink bottom (organic) phase. The top ¾ of the aqueous phase was transferred to a new clean Eppendorf tube.
The RNA was precipitated from the aqueous phase by adding an equal amount of 100% ethanol. […]

[1] = cortical neurons, 0.01 mg/ml, 48 hours

sodium salt of dextran sulfate [LMW-DS]
differentially expressed genes (D0 control vs D2 LMW-DS treated, 0.01 mg/ml): 609 genes
differentially expressed genes (second comparison, printed as D0 control to D2 LMW-DS treated): 247 genes
number of genes: no effect / abolished nutrient effect [1]: 572
number of genes: no effect / new effect induced by LMW-DS [1]: 19
number of genes: no effect / total [1]: 591
number of genes: significant downregulation / abolished nutrient effect [1]: 7
number of genes: significant downregulation / enhanced response to nutrients [1]: 158
number of genes: significant downregulation / new effect induced by LMW-DS [1]: 22
number of genes: significant downregulation / not different from control [1]: 95
number of genes: significant downregulation / total [1]: 282
number of genes: significant upregulation / abolished nutrient effect [1]: 33
number of genes: significant upregulation / enhanced response to nutrients [1]: 43
number of genes: significant upregulation / new effect induced by LMW-DS [1]: 7
number of genes: significant upregulation / not different from control [1]: 221
number of genes: significant upregulation / total [1]: 304
number of genes: total / abolished nutrient effect [1]: 612
number of genes: total / enhanced response to nutrients [1]: 612
number of genes: total / new effect induced by LMW-DS [1]: 48
number of genes: total / not different from control [1]: 316
number of genes: total / total [1]: 1177
